According to the supplement of paper PMC10307832:

Experiments:
Assay in all cases: relative viability (nuclei count vs DMSO), 5 days (fraction); higher = more cells survive
NCI-H1734 = test system: NCI-H1734
Outline: (§1)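 Lung cancer cell lines, seeded in 1536-well plates, were treated the following day by pin tool with a single drug or with five library-drug doses (not always all listed) in √10 steps on top of a fixed anchor-drug dose. Cells were fixed and nuclei stained in one step after 5 days, and nuclei were counted. Relative viability is the nuclei count for treated wells divided by that for vehicle wells, reported as medians of duplicate plates.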

CAL-12T = test system: CAL-12T
Outline: as §1

LC-2-ad = test system: LC-2-ad
Outline: as §1

H3255 = test system: H3255
Outline: as §1

HCC-366 = test system: HCC-366
Outline: as §1

NCI-H1915 = test system: NCI-H1915
Outline: as §1

NCI-H2347 = test system: NCI-H2347
Outline: as §1

HARA = test system: HARA
Outline: as §1

NCI-H838 = test system: NCI-H838
Outline: as §1

RERF-LC-KJ = test system: RERF-LC-KJ
Outline: as §1

HCC-15 = test system: HCC-15
Outline: as §1

COR-L 105 = test system: COR-L 105
Outline: as §1

LU99A = test system: LU99A
Outline: as §1

NCI-H460 = test system: NCI-H460
Outline: as §1

PC-14 = test system: PC-14
Outline: as §1

NCI-H727 = test system: NCI-H727
Outline: as §1

NCI-H1666 = test system: NCI-H1666
Outline: as §1

NCI-H1944 = test system: NCI-H1944
Outline: as §1

NCI-H1437 = test system: NCI-H1437
Outline: as §1

Oc1nc(-c2ccc(C(F)(F)F)cc2)nc2c1CSCC2 [XAV939] + CC1(C)CCC(c2ccc(Cl)cc2)=C(CN2CCN(c3ccc(C(=O)NS(=O)(=O)c4ccc(N[C@H](CCN5CCOCC5)CSc5ccccc5)c(S(=O)(=O)C(F)(F)F)c4)cc3)CC2)C1 [Navitoclax] (partner 0.5 µM)
relative viability (NCI-H1734; first compound 0.08 µM): 0.921
relative viability (NCI-H1734; first compound 0.253 µM): 0.866
relative viability (NCI-H1734; first compound 0.8 µM): 0.856
relative viability (NCI-H1734; first compound 2.53 µM): 0.855
relative viability (CAL-12T; first compound 0.08 µM): 1.39
relative viability (CAL-12T; first compound 0.253 µM): 1.07
relative viability (CAL-12T; first compound 0.8 µM): 1.28
relative viability (CAL-12T; first compound 2.53 µM): 1.03
relative viability (LC-2-ad; first compound 0.08 µM): 0.389
relative viability (LC-2-ad; first compound 0.253 µM): 0.429
relative viability (LC-2-ad; first compound 0.8 µM): 0.6
relative viability (LC-2-ad; first compound 2.53 µM): 0.428
relative viability (H3255; first compound 0.08 µM): 0.511
relative viability (H3255; first compound 0.253 µM): 0.445
relative viability (H3255; first compound 0.8 µM): 0.403
relative viability (H3255; first compound 2.53 µM): 0.366
relative viability (HCC-366; first compound 0.08 µM): 1.12
relative viability (HCC-366; first compound 0.253 µM): 1.09
relative viability (HCC-366; first compound 0.8 µM): 1.05
relative viability (HCC-366; first compound 2.53 µM): 0.942
relative viability (NCI-H1915; first compound 0.08 µM): 0.813
relative viability (NCI-H1915; first compound 0.253 µM): 0.793
relative viability (NCI-H1915; first compound 0.8 µM): 0.769
relative viability (NCI-H1915; first compound 2.53 µM): 0.792
relative viability (NCI-H2347; first compound 0.08 µM): 0.788
relative viability (NCI-H2347; first compound 0.253 µM): 0.886
relative viability (NCI-H2347; first compound 0.8 µM): 0.75
relative viability (NCI-H2347; first compound 2.53 µM): 0.698
relative viability (HARA; first compound 0.08 µM): 1.15
relative viability (HARA; first compound 0.253 µM): 0.609
relative viability (HARA; first compound 0.8 µM): 1.17
relative viability (HARA; first compound 2.53 µM): 1.17
relative viability (NCI-H838; first compound 0.08 µM): 1.21
relative viability (NCI-H838; first compound 0.253 µM): 0.994
relative viability (NCI-H838; first compound 0.8 µM): 1.07
relative viability (NCI-H838; first compound 2.53 µM): 0.868
relative viability (RERF-LC-KJ; first compound 0.08 µM): 0.905
relative viability (RERF-LC-KJ; first compound 0.253 µM): 0.999
relative viability (RERF-LC-KJ; first compound 0.8 µM): 0.804
relative viability (RERF-LC-KJ; first compound 2.53 µM): 0.452
relative viability (HCC-15; first compound 0.08 µM): 0.719
relative viability (HCC-15; first compound 0.253 µM): 0.612
relative viability (HCC-15; first compound 0.8 µM): 0.678
relative viability (HCC-15; first compound 2.53 µM): 0.684
relative viability (COR-L 105; first compound 0.08 µM): 0.754
relative viability (COR-L 105; first compound 0.253 µM): 0.62
relative viability (COR-L 105; first compound 0.8 µM): 0.637
relative viability (COR-L 105; first compound 2.53 µM): 0.458
relative viability (LU99A; first compound 0.08 µM): 0.939
relative viability (LU99A; first compound 0.253 µM): 0.708
relative viability (LU99A; first compound 0.8 µM): 0.683
relative viability (LU99A; first compound 2.53 µM): 0.708
relative viability (NCI-H460; first compound 0.08 µM): 1.38
relative viability (NCI-H460; first compound 0.253 µM): 1.03
relative viability (NCI-H460; first compound 0.8 µM): 1.1
relative viability (NCI-H460; first compound 2.53 µM): 1.16
relative viability (PC-14; first compound 0.08 µM): 1.04
relative viability (PC-14; first compound 0.253 µM): 0.906
relative viability (PC-14; first compound 0.8 µM): 1.03
relative viability (PC-14; first compound 2.53 µM): 0.956
relative viability (NCI-H727; first compound 0.08 µM): 0.407
relative viability (NCI-H727; first compound 0.253 µM): 0.231
relative viability (NCI-H727; first compound 0.8 µM): 0.362
relative viability (NCI-H727; first compound 2.53 µM): 0.44
relative viability (NCI-H1666; first compound 0.08 µM): 0.847
relative viability (NCI-H1666; first compound 0.253 µM): 0.721
relative viability (NCI-H1666; first compound 0.8 µM): 0.903
relative viability (NCI-H1666; first compound 2.53 µM): 0.469
relative viability (NCI-H1944; first compound 0.08 µM): 1.07
relative viability (NCI-H1944; first compound 0.253 µM): 0.986
relative viability (NCI-H1944; first compound 0.8 µM): 1.01
relative viability (NCI-H1944; first compound 2.53 µM): 1.1
relative viability (NCI-H1437; first compound 0.08 µM): 1.14
relative viability (NCI-H1437; first compound 0.253 µM): 0.931
relative viability (NCI-H1437; first compound 0.8 µM): 1.12
relative viability (NCI-H1437; first compound 2.53 µM): 0.888
